Results: article PMC12040169 (PLOS Biology, 2025)

Experiment: in vitro
Conditions: human, hela cells, % viability

| SMILES | viability at 28.5 h, 10 µM |
| --- | --- |
| O=C(Nc1cccc2nsnc12)c1ccc(Cl)cc1 [CBK263793] | 96.1% |
| Cc1nc(CCCn2cnc3cnccc3c2=O)sc1C [CBK306610] | 102% |
| O=C1N/C(=N/c2cccc(O)c2)S/C1=C1\C(=O)Nc2ccccc21 [CBK265549] | 99.6% |
| OCC1CCCN(Cc2c(C3CCCC3)[nH]c3ncccc23)C1 (stereo not drawn) [CBK285332] | 96.1% |
| COc1ccc([C@@]23CC[C@@H](NC(=O)N(C)c4ccc(C)cc4)C[C@@H]2N(C)CC3)cc1OC [CBK045681T] | 89.2% |
| O=C(Nc1ccc(S(=O)(=O)N2CCOCC2)cc1)c1cc(-c2ccccc2)nc2ccccc12 [CBK264790] | 103% |
| c1ccc(Nc2nc(-c3ccco3)cn3ccnc23)cc1 [CBK037947] | 86.9% |
| O=[N+]([O-])c1ccc(CSc2nnc(-c3cccnc3)n2Cc2ccco2)cc1 [CBK264580] | 106% |
| O=C(CSc1n[nH]c(=O)n1Cc1ccccc1)NCc1ccc(-c2ccc(Cl)cc2)o1 [CBK296963] | 102% |
| Cc1cc(Br)ccc1OCC(=O)O/N=C(\N)Cc1ccc([N+](=O)[O-])cc1 [CBK265095] | 99.8% |
| Cc1ccccc1CC(=O)NCC(c1ccccc1Cl)N1CCOCC1 (stereo not drawn) [CBK304564] | 85.3% |
| O=C(CSc1nnc(-c2ccncc2)n1-c1ccccc1)c1ccc(Br)cc1 [CBK266758] | 93.9% |
| Cc1ccccc1OCC(=O)NCC1(N2CCCCC2)CCCCC1 [CBK297752] | 89.5% |
| Cn1c(=O)c2c(ncn2CC(=O)Nc2ccc(Cl)cc2Cl)n(C)c1=O [CBK133227] | 86% |
| Cc1ccc(NC(=O)Cn2cnc3c(cnn3-c3ccc(C)cc3)c2=O)cc1 [CBK287534] | 104% |
| CN(CCc1ccncc1)C(=O)CCc1cc(F)ccc1F [CBK304876] | 90.6% |
| Cc1ccc2nc(Cn3cc(-c4cnn(Cc5ccccc5)c4)cn3)cn2c1 [CBK297125] | 90.4% |
| Cc1ccccc1C(NC(=O)C1CCN(C(=O)NCCc2ccccc2)CC1)c1ncccc1C (stereo not drawn) [CBK060409] | 91% |
| O=C(NCCc1ccc(O)cc1)c1ccc2nc[nH]c2c1 [CBK153323] | 106% |
| COc1cc(NC(=O)c2cc([N+](=O)[O-])ccc2N2CCOCC2)ccc1-c1cc2ccccc2oc1=O [CBK269128] | 84.9% |
| O=C(NCCO)NC(=S)c1ccccc1 [CBK267213] | 95.2% |
| CC1CCN(Cc2nc3c(c(=O)n(C)c(=O)n3C)n2CCN2CCOCC2)CC1 [CBK269291] | 108% |
| CCn1c(=O)n(CC(=O)N2CCCCC2C)c2cccnc21 (stereo not drawn) [CBK283896] | 103% |

| SMILES | viability at 28.5 h, 10 µM |
| --- | --- |
| CN(C)CCN(C)Cc1ccc([N+](=O)[O-])cc1 [CBK261728] | 110% |
| O=C(c1ccccc1F)N1CCCC(c2cc3ncccc3cn2)C1 (stereo not drawn) [CBK284710] | 83.3% |
| CC(=O)O/C(N)=N/c1nonc1N [CBK021885] | 105% |
| Cc1cc(C(F)F)nn1CC(=O)N1CCc2ncc(Cl)cc2C1 [CBK284853] | 108% |
| Cc1ccc(NC(=O)c2cnc3n(c2=O)CCS3)cc1 [CBK287376] | 108% |
| O=C(NCCOc1ccccc1)NC(=O)C1CCNCC1 [CBK088187T] | 119% |
| CC(C)c1csc(NC(=O)C2CN(S(=O)(=O)c3ccc(F)cc3)C2)n1 [CBK285944] | 120% |
| C#CCOc1cc(Br)c(/C=C(/C#N)c2ccc([N+](=O)[O-])cc2)cc1OCC [CBK266617] | 104% |
| COc1ccc2nc(Nc3nc(-c4cccnc4)cs3)sc2c1 [CBK287482] | 89.1% |
| Cc1noc(C)c1C(=O)N1CCc2ccccc2C1 [CBK200333] | 103% |
| O=C(O)Cn1c2ccccc2c2nc3ccccc3nc21 [CBK263649] | 81.1% |
| O=C(c1ccccc1Cl)c1cc(Cl)ccc1-n1ccnc1 [CBK005151] | 95.2% |
| CC(=O)Nc1cc2ccccc2nc1C1CCN(C(=O)C(C)C)CC1 [CBK285259] | 83.7% |
| O=C(Nc1ccccc1)N1C[C@@H]2OCC(=O)N(Cc3ccc(F)cc3)[C@@H]2C1 [CBK289683] | 82% |
| O=C(N[C@@H]1CNCCC[C@H]1O)c1ccc(OCCN2CCOCC2)cc1 [CBK289065] | 98.3% |
| N=C1S/C(=C/c2ccc(-c3ccccc3C(=O)O)o2)C(=O)N1c1nccs1 [CBK077624] | 93.9% |
| O=C(Nc1cccc2cccnc12)c1ccc(Cl)c(Cl)c1 [CBK261318] | 91.5% |
| O=C(O)C1CC(=O)N(Cc2ccccc2)C1c1ccccc1 (stereo not drawn) [CBK286876] | 89.1% |
| CSCCCNC(=O)c1cc(-c2ccc(C(=O)N3CCOCC3)cc2)cnc1N [CBK158568] | 95.5% |
| CS(=O)(=O)N(CC(=O)N1CCN(Cc2ccc3c(c2)OCO3)CC1)c1cccc(C(F)(F)F)c1 [CBK265329] | 77.7% |
| COc1ccc(C(CNC(=O)Cn2c(-c3cccc(C)c3)n[nH]c2=S)N2CCOCC2)cc1OC (stereo not drawn) [CBK297900] | 88.2% |
| O=C(NC1CC1)C1(Cc2ccccc2-c2ccncc2)CCOCC1 [CBK284785] | 94.1% |
| O=C(O)/C=C\C(=O)Nc1cccc(NC(=O)c2cccs2)c1 [CBK263952] | 85.7% |

| SMILES | viability at 28.5 h, 10 µM |
| --- | --- |
| CCCC(=O)NC(NC(=S)Nc1ccccc1Cl)C(Cl)(Cl)Cl (stereo not drawn) [CBK261026] | 106% |
| COc1ccc(F)c(C2NC(=O)CCC2N)c1 (stereo not drawn) [CBK282905] | 97.6% |
| Cc1nn2c(=O)[nH]ncc2c1-c1ccccc1C(=O)N(C(C)C)C(C)C [CBK307043] | 109% |
| COCOc1ccc(-c2nc(-c3ccco3)cnc2N)cc1 [CBK064108] | 82.9% |
| O=C(O)CC(C(=O)Nc1ccccc1)N1CCOCC1 (stereo not drawn) [CBK287182] | 94.8% |
| c1cnn(CC2CCCCN2c2ncnc3sccc23)c1 (stereo not drawn) [CBK304969] | 92.1% |
| CCCCc1ccc(-c2cc3ncccc3nc2N)cc1 [CBK081198] | 96.3% |
| c1cc(OCCN2CCCC2)c2cc[nH]c2c1 [CBK083478] | 101% |
| CCn1c(SCC(=O)Nc2ccc([N+](=O)[O-])cc2)nnc1C(NC(=O)c1ccccc1)C(C)C (stereo not drawn) [CBK107508] | 94.9% |
| O=C(O)c1ccc(OCCNS(=O)(=O)c2ccc3ccccc3c2)cc1 [CBK299807] | 83.5% |
| COC(=O)c1ccc(NC(=O)N2CCCC2c2nc(-c3ccccc3)c3ccccn23)cc1 (stereo not drawn) [CBK046725] | 102% |
| Cc1ccc(C2c3c(oc4ccccc4c3=O)C(=O)N2CCCCCC(=O)O)cc1 (stereo not drawn) [CBK287158] | 94.1% |
| Cn1cc(C2CCCCCN2C(=O)c2ccccc2F)cn1 (stereo not drawn) [CBK285119] | 107% |
| CN1CCN(NC(=O)CSc2ccccc2)CC1 [CBK268142] | 107% |
| Cn1[nH]c(COC(C)(C)C)c(Cc2c(Cl)cccc2Cl)c1=O [CBK093521] | 99.4% |
| O=C(Nc1nc2ccccc2[nH]1)c1cccc(N2CCCS2(=O)=O)c1 [CBK304584] | 100% |
| CCCNS(=O)(=O)c1cc2c3c(c1)c(C)cc(=O)n3CCC2 [CBK307547] | 97.1% |
| Cc1cc(C)n(CC2CN(CC(=O)NCc3cccs3)CCO2)n1 (stereo not drawn) [CBK304902] | 109% |
| O=C(O)CC(NC(=O)c1ccccc1)c1ccco1 (stereo not drawn) [CBK268843] | 87.4% |
| CC(=O)Nc1cc2nc3ccccc3nc2cc1NC(C)=O [CBK261018] | 92.6% |
| O=C(Nc1ccc(NC(=O)c2cc(O)nc3ccccc23)cc1)c1ccccc1 [CBK269722] | 106% |
| O=c1cc(CO)oc(C(Nc2ccccn2)c2ccsc2)c1O (stereo not drawn) [CBK296956] | 106% |
| O=S(=O)(N1CCOCC1)N1CCN(CC(O)COc2ccc3cc(Br)ccc3c2)CC1 (stereo not drawn) [CBK268840] | 103% |

| SMILES | viability at 28.5 h, 10 µM |
| --- | --- |
| Cc1nc(SCc2ccccc2)nc(O)c1CC(=O)O [CBK264203] | 96.8% |
| Cc1nc[nH]c1CN(Cc1cccc(F)c1)Cc1ccco1 [CBK282493] | 75.7% |
| COCC(O)CN(C)C(=O)c1ccc(Oc2cccc(Br)c2)nc1 (stereo not drawn) [CBK304229] | 94% |
| C[C@@H]1CN(C(=O)c2ccc3[nH]cnc3c2)C[C@H](C)O1 [CBK200120] | 106% |
| Cc1cccc(CN(CC(C)(C)CN)C(=O)Nc2ccc(-c3ccccc3)cc2)n1 [CBK002453C] | 86.7% |
| CN(CCN1CCOCC1)c1nc2c(c(=O)[nH]1)Cc1ccccc1OC2 [CBK306783] | 75.4% |
| Cc1oc(NC(=O)CN2CCN(c3ccccc3)CC2)c(C#N)c1C [CBK306044] | 81.7% |
| COCCC(=O)NC(Cc1cccs1)c1nccs1 (stereo not drawn) [CBK282180] | 83.3% |
| CCNC(=O)CN(C)S(=O)(=O)c1cc(Cl)ccc1Cl [CBK091853] | 94.1% |
| O=S(=O)(c1ccccc1)n1ccc2c(Br)cccc21 [CBK002084] | 113% |
| O=S(=O)(Nc1ccc2nsnc2c1)c1ccc(F)cc1 [CBK051010] | 90.2% |
| CC(C)(c1ccccc1)c1ccc(OCCOc2ccc(/C=C3\SC(=S)NC3=O)cc2)cc1 [CBK264378] | 91% |
| CCCC/C=C/c1cnc(N)c(-c2ccc(CCC(=O)O)cc2)n1 [CBK064127] | 95.5% |
| COc1ccc(C(NC(=O)NNC(=O)CCC(=O)c2ccc(F)cc2)c2ccccc2C)cn1 (stereo not drawn) [CBK083659] | 99% |
| COc1cc(-c2cc(-c3ccccc3)nc(SCC(=O)O)c2C#N)cc(OC)c1OC [CBK131867] | 99.3% |
| CC(C)Cn1cnc2c(Cl)nc3ccccc3c21 [CBK017530] | 86.4% |
| O=C(CC1CCCC1)N1CCCC(c2cc3cccnc3[nH]2)C1 (stereo not drawn) [CBK284940] | 98.6% |
| CC1=C[C@@H](CO)[C@H](C(C)C)C[C@H]1CC(=O)NCc1cccnc1 [CBK289218] | 81.7% |
| O=S(=O)(NCc1ccccn1)c1ccc(Br)cc1Br [CBK262291] | 93.2% |
| O=C(O)C1CCN(c2ncnc3sc4c(c23)CCC4)CC1 [CBK268326] | 98.9% |

Same assay, conditions: human, hela cells, % viability, bulk resorufin, single well

| SMILES | viability at 28.5 h, 10 µM |
| --- | --- |
| COc1ccc(Cl)cc1N1CCNCC1 [CBK013449C] | 89.4% |
